{
  "source": "patent US9814758B2",
  "about": "“Inhibitors of apoptosis and uses thereof” (CENTRE NATIONAL DE LA RECHERCHE SCIENTIFIQUE-CNRS, priority 2010, dated 2017)",
  "key": {"primary cardiomyocytes": {"test_system": "primary cardiomyocytes", "test": "STS-induced DNA fragmentation (Cell Death detection ELISA PLUS) in primary cardiomyocytes", "type": "cell-based, mouse", "details": "for anti-apoptotic effect compared with Tat-DAXXp: primary cardiomyocytes, against STS; for decrease in apoptosis: cardiomyocytes, STS + 1 μM peptide, FIG. 9", "method": "(§1) FIG. 5: In vitro evaluation of the anti-apoptotic activity of CPPs and CPP-conjugates. Workflow and quantitation of DNA fragmentation in (A) C2C12 cells, (B) primary cardiomyocytes, (C) H9c2 cells and (D) NG108-15 cells. Data were normalized to 100% STS. Data shown are the means±SEM, with n≧5. Cells were seeded in 24-well plates and grown overnight. The next day, the cells were incubated with STS alone or with STS+1 μM peptide (in OPTI-MEM) (OPTI-MEM® is a modification of Eagle's Minimum Essential Media, buffered with HEPES and sodium bicarbonate, and supplemented with hypoxanthine, thymidine, sodium pyruvate, L-glutamine, trace elements, and growth factors) (STS concentration and incubation time for each cells are given in the figure). Thereafter, solutions were removed, replaced by complete medium and further incubated for 40 h. Following the regeneration phase, the cells were lyzed and DNA fragmentation was detected according to manufacturer's instructions (Cell Death detection ELISA^PLUS kit—Roche Diagnostics).\nFIG. 6: Anti-apoptotic activity of variants of the Tat-DAXXp sequence on primary cardiomyocytes. As described in the caption of FIG. 5, the different analogues of the DAXXp sequence (see Table 2) were assessed for anti-apoptotic properties against STS (Cell Death detection ELISA^PLUS kit—Roche Diagnostics) (A-B). None of the analogues were able to protect the primary cardiomyocytes—a fact which confirms that the 16mer DAXXp has the optimal length and sequence for highest cardioprotective effect.\nFIG. 7: Comparison of the murine/rat DAXXp with the human DAXXp sequence in terms of anti-apoptotic activity on C2C12 cells, primary cardiomyocytes, and H9c2. The murine DAXXp sequence conjugated to Tat (Tat-mDAXXp—SEQ ID NO: 61) which is identical to the rat DAXXp sequence (see FIG. 1B), was compared to the human construct (Tat-DAXXp) in terms of anti-apoptotic properties against STS (Cell Death detection ELISA^PLUS kit—Roche Diagnostics). The C2C12 cells and the primary cardiomyocytes used were from mice and the H9c2 cells from rat.\nFIG. 9: Comparison of FADDp constructs with Tat-DAXXp in terms of anti-apoptotic activity in primary cardiomyocytes and in H9c2 cells. Quantification of DNA normalized to 100% STS. Data shown are the means±SEM, with n≧5. Cells were seeded in 24-well plates and grown overnight. The next day, the cells were incubated with STS alone or with STS+1 μM peptide (in OPTI-MEM®) (OPTI-MEM® is a modification of Eagle's Minimum Essential Media, buffered with HEPES and sodium bicarbonate, and supplemented with hypoxanthine, thymidine, sodium pyruvate, L-glutamine, trace elements, and growth factors) (STS concentration is given in the figure and incubation time is given in FIG. 5). Thereafter, solutions were removed, replaced by complete medium and further incubated for 40 hours. Following the regeneration phase, the cells were lyzed and DNA fragmentation was detected according to manufacturer's instructions (Cell Death detection ELISA^PLUS kit—Roche Diagnostics).\nFIG. 10: Comparison of Tat-DAXXp and Tat-FADDp15 alone and in combination in primary cardiomyocytes (A) and in H9c2 cells (B).\n(§2) Thereafter, the capacity of these peptides to inhibit apoptosis induced by staurosporine was evaluated. Apoptosis was determined using the Cell Death detection ELISA^PLUS kit (Roche) measuring the DNA fragmentation.\nIn most publications, anti-apoptotic peptides currently available in the art are administrated 3-4 hours prior to apoptosis induction, which is poorly relevant to a clinical application. For that reason, the protocol used in the present study included administration of the peptides together with the staurosporine. […] This was not observed with CPP alone or with the Tat-scrDAXXp or Tat-ncDAXXp negative controls. […] To better compare the results, the DNA fragmentation (described by the enrichment factor) is related to the staurosporine-treated cells (=100%)."}, "C2C12 cells": {"test_system": "C2C12 cells", "test": "STS-induced DNA fragmentation (Cell Death detection ELISA PLUS) in C2C12 cells", "type": "cell-based, mouse", "details": "C2C12; against STS", "method": "as §1, with “Thereafter, solutions were removed, replaced by complete medium and further incubated for 40 h.” left out, “Diagnostics). […]” for “Diagnostics).”\nas §2\n(§3) The anti-apoptotic effects of the peptides were also analyzed in murine NG118-15 (model for neuronal cells) (FIG. 5D), in murine C2C12 (model for muscle cells) (FIG. 5A) and in rat H9c2 (model for cardiac cells) (FIG. 5C). […]"}, "H9c2 cells": {"test_system": "H9c2 cells", "test": "STS-induced DNA fragmentation (Cell Death detection ELISA PLUS) in H9c2 cells", "type": "cell-based, rat", "details": "H9c2; against STS", "method": "as §1, with “Diagnostics). […]” for “Diagnostics).”\nas §2\nThe anti-apoptotic effects of the peptides were also analyzed in murine NG118-15 (model for neuronal cells) (FIG. 5D), in murine C2C12 (model for muscle cells) (FIG. 5A) and in rat H9c2 (model for cardiac cells) (FIG. 5C). The highest reduction in DNA fragmentation were observed using Bpep-DAXXp in NG118-15 (66% reduction) using Tat-DAXXp in C2C12 (24% reduction) and Pip2b-DAXXp in H9c2 (31% reduction)."}, "[1]": {"target": "T1, intracellular region of the Fas receptor (Homo sapiens, UniProt P25445)", "T1 sequence (P25445 191-335 limits assumed)": "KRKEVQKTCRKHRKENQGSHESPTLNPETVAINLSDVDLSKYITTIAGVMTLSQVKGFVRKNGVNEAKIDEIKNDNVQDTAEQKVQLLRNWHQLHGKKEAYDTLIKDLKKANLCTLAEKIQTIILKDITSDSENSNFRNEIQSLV", "test": "Binding affinities (Kd) by surface plasmon resonance (Biacore)", "details": "mean of three independent experiments, read-out: Kd ± SD", "description": "Additionally, the potential interaction of the fragments with the intracellular region of the Fas receptor was cross-validated by measuring the binding affinities (Kd) using the surface plasmon resonance (SPR) technique (Biacore Life Science, Sweden)."}, "NG108-15 cells": {"test_system": "NG108-15 cells", "test": "STS-induced DNA fragmentation (Cell Death detection ELISA PLUS) in NG108-15 cells", "type": "cell-based", "details": "murine NG118-15 (model for neuronal cells); FIG. 5D", "method": "as §1, with “Thereafter, solutions were removed, replaced by complete medium and further incubated for 40 h.” left out\nas §2, §3"}},
  "note": "Non-standard residues stand in square brackets, D forms with d. No end group written: not given here. Ahx = NCCCCCC(=O)O; βAla = NCCC(=O)O",
  "data": [
    {"substance": "GRKKRRQRRRPPQ-KRFRKEKKQLGSGLLG-NH2 (GRKKRRQRRRPPQKRFRKEKKQLGSGLLG-NH2) [Tat-mDAXXp]", "values": [
      {"measurement": "anti-apoptotic effect compared with Tat-DAXXp", "setting": "primary cardiomyocytes", "result": "increase in anti-apoptotic effect"},
      {"measurement": "anti-apoptotic effect compared with Tat-DAXXp", "setting": "C2C12 cells", "result": "increase in anti-apoptotic effect"},
      {"measurement": "anti-apoptotic effect compared with Tat-DAXXp", "setting": "H9c2 cells", "result": "increase in anti-apoptotic effect"}
    ]},
    {"substance": "GRKKRRQRRRPPQ-KRKLERVQS-NH2 (GRKKRRQRRRPPQKRKLERVQS-NH2) [Tat-FADDp]", "values": [
      {"measurement": "decrease in apoptosis", "setting": "primary cardiomyocytes", "result": 35, "unit": "%"},
      {"measurement": "anti-apoptotic effect compared with Tat-DAXXp", "setting": "primary cardiomyocytes", "result": "less effective than Tat-DAXXp"},
      {"measurement": "anti-apoptotic effect compared with Tat-DAXXp", "setting": "H9c2 cells", "result": "less effective than Tat-DAXXp"}
    ]},
    {"substance": "GRKKRRQRRRPPQ-VGKRKLERVQSGLDL-NH2 (GRKKRRQRRRPPQVGKRKLERVQSGLDL-NH2) [Tat-FADDp15]", "values": [
      {"measurement": "decrease in apoptosis", "setting": "primary cardiomyocytes", "result": 57, "unit": "%"},
      {"measurement": "anti-apoptotic effect compared with Tat-DAXXp", "setting": "primary cardiomyocytes", "result": "increased anti-apoptotic effect"},
      {"measurement": "anti-apoptotic effect compared with Tat-DAXXp", "setting": "H9c2 cells", "result": "equal"}
    ]},
    {"substance": "KKGRKQSGESLGTPKK-NH2 [scrDAXXp, KKGRKQSGESLGTPKK -NH2]", "values": [
      {"measurement": "Kd", "setting": "[1]", "result": "≥ 6", "unit": "mM"}
    ]},
    {"substance": "RXRRBRRXRRBRXB-KKSRKEKKQTGSGPLG-NH2 (R[Ahx]RR[βAla]RR[Ahx]RR[βAla]R[Ahx][βAla]KKSRKEKKQTGSGPLG-NH2; N-terminus assumed; SMILES CC(C)C[C@H](NC(=O)[C@@H]1CCCN1C(=O)CNC(=O)[C@H](CO)NC(=O)CNC(=O)[C@@H](NC(=O)[C@H](CCC(N)=O)NC(=O)[C@H](CCCCN)NC(=O)[C@H](CCCCN)NC(=O)[C@H](CCC(=O)O)NC(=O)[C@H](CCCCN)NC(=O)[C@H](CCCNC(=N)N)NC(=O)[C@H](CO)NC(=O)[C@H](CCCCN)NC(=O)[C@H](CCCCN)NC(=O)CCNC(=O)CCCCCNC(=O)[C@H](CCCNC(=N)N)NC(=O)CCNC(=O)[C@H](CCCNC(=N)N)NC(=O)[C@H](CCCNC(=N)N)NC(=O)CCCCCNC(=O)[C@H](CCCNC(=N)N)NC(=O)[C@H](CCCNC(=N)N)NC(=O)CCNC(=O)[C@H](CCCNC(=N)N)NC(=O)[C@H](CCCNC(=N)N)NC(=O)CCCCCNC(=O)[C@@H](N)CCCNC(=N)N)[C@@H](C)O)C(=O)NCC(N)=O) [Bpep-DAXXp]", "values": [
      {"measurement": "reduction in DNA fragmentation", "setting": "NG108-15 cells", "result": 66, "unit": "%"}
    ]}
  ]
}
